Where two headings read alike, the source gives them in different places.
Assays:
HIV protease = molecular target: T1, HIV protease (Human immunodeficiency virus type 1 group M subtype B, UniProt P04585); test: HIV Protease Assay; assay type: biochemical
T1 construct: and purified protease
Summary of the method: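 Purified protease cleaved 450 μM octapeptide substrate in 50 mM sodium acetate pH 5.5 with 100 μg/ml BSA for 30 minutes at 37° C; product analyzed by reverse-phase HPLC at UV220 after H3PO4 quench. Inhibitors tested at final 10 μM with 4% DMSO.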

[1] = test system: RF strain of HIV (CEM-SS cells); test: Cell Culture Anti-HIV Activity (cell viability, formazan); assay type: cell-based; conditions: Human immunodeficiency virus 1, CEM-SS, 144 h, CEM-SS cells, RF strain of HIV, multiplicity of infection 0.04, 6 days at 37° C., 450 nm; read-out: HIV (CEM Cells) IC50
Summary of the method: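 CEM-SS cells (5000/well) infected with HIV RF at MOI 0.04, exposed to half-log serial compound dilutions, incubated 6 days at 37° C. Viability read by tetrazolium reduction to formazan, absorbance 450 nm. IC50 is the concentration raising formazan in infected cells to 50% of uninfected, drug-free cells.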

[2] = pH 5.5, 10 μM inhibitor, 4% DMSO, 450 μM substrate, pH 5.5, 30 minutes at 37° C., RP-HPLC, read-out: HIV Protease % Inhibition at 10 μM
[3] = pH 5.5, read-out: HIV Protease % Inhibition at 10 μM

| inhibition at 10 µM (HIV protease; [2]) [%] | inhibition at 10 µM (HIV protease; [3]) [%] | Compound | IC50 [1] [nM] |
| --- | --- | --- | --- |
| 100 |  | CC(C)(CO)OC(=O)N[C@@H](Cc1ccccc1)[C@H](O)CNC[C@@H](O)[C@H](Cc1ccccc1)NC(=O)[C@](C)(O)C(C)(C)C [Compound 333, [1S-[1R*,2S*[2S*3R*(S*)]]]-[3-[[3-[(2-Hydroxy-2,3,3-trimethyl-1-oxobutyl)amino]-2-hydroxy-4-phenylbutyl]amino-2-hydroxy-1-(phenylmethyl)propyl]carbamic acid, 2-hydroxy-1,1-dimethylethyl ester] | 150 |
|  | 94 | CC(C)(C)OC(=O)N[C@@H](Cc1ccccc1)[C@H](O)CNC[C@@H](O)[C@H](Cc1ccccc1)NC(=O)C(C)(C)O [Compound 278, [1S-[1R*,2S*(2S*,3R*)]]-[2-Hydroxy-3-[[2-hydroxy-3-[(2-hydroxy-2-methyl-1-oxoproply)amino]-4-phenylbutyl]amino]-1-(phenylmethyl)propyl]carbamic acid, 1,1-dimethylethyl ester] | 840 |
| 100 |  | COC(=O)N(C)[C@H](C(=O)N[C@@H](Cc1ccccc1)[C@H](O)CNC[C@@H](O)[C@H](Cc1ccccc1)NC(=O)OC(C)(C)C)C(C)(C)C [Compound 320, [1S-[1R*,2S*,(2S*,3R*)]-[2,2-Dimethyl-1-[[[3-[[3-(1,1-dimethylethoxy)-carbonyl]amino]-2-hydroxy-4-phenylbutyl]amino]-2-hydroxy-1-(phenylmethyl)propyl]amino]-carbonyl]propyl]methylcarbamic acid, methyl ester] | 220 |
| 98 |  | CC(C)(CO)OC(=O)N[C@@H](Cc1ccccc1)[C@H](O)CNC[C@@H](O)[C@H](Cc1ccccc1)NC(=O)C1(O)CCCC1(C)C (single isomer, unassigned; isomer a) [Compound 368, [1S-[1R*,2S*(2S*,3R*)] -[3-[[3-[[(2,2-Dimethyl-1-hydroxycyclopentyl)-carbonyl]amino]-2-hydroxy-4-phenylbutyl]amino]-2-hydroxy-1-(phenylmethyl)propyl]carbamic acid, 2-hydroxy-1,1-dimethylethyl ester, isomer A] | 17 |
| 100 |  | CC(C)(C)OC(=O)N[C@@H](Cc1ccccc1)[C@H](O)CNC[C@@H](O)[C@H](Cc1ccc(O)cc1)NC(=O)OC(C)(C)CO [Compound 233, [1S-[1R*,2S*(2S*,3R*)]]-[3-[[3-[[(1,1-Dimethylethoxy)carbonyl]amino]-2-hydroxy-4-(4-hydroxyphenyl)butyl]amino]-2-hydroxy-1-(phenylmethyl)propyl]carbamic acid,2-hydroxy-1,1-dimethylethyl ester] | 1000 |
| 87 |  | CC(C)(C)OC(=O)N[C@@H](Cc1ccccc1)[C@H](O)CNC[C@@H](O)[C@H](Cc1ccccc1)NC(=O)OCc1ccccc1 [Compound 45, [R-(R*,S*)]-[Iminobis[2-hydroxy-1-(phenylmethyl)-3,1-propandiyl]biscarbamic acid, 1,1-dimethylethylphenylmethyl ester] | 500 |
| 86 |  | CC(C)[C@H](NC(=O)OC[C@H](O)CO)C(=O)N[C@@H](Cc1ccccc1)[C@H](O)CNC[C@@H](O)[C@H](Cc1ccccc1)NC(=O)OC(C)(C)C (relative stereo) [Compound 219, [[1R*,2S*(2S*,3R*)],N^2-(S*)]-N^2-[(2,3-Dihydroxypropoxy)carbonyl]-N-[3-[[3-[[(1,1-dimethylethoxy)carbonyl]-amino]-2-hydroxy-4-phenylbutyl]amino]-2-hydroxy-1-(phenylmethyl)propyl]-L-valinamide] | 35000 |
| 100 |  | CC(C)(C)OC(=O)N[C@@H](Cc1ccccc1)[C@H](O)CNC[C@@H](O)[C@H](Cc1ccccc1)NC(=O)OC1CCOC1 (stereo partly drawn) [Compound 310, [1S-(1R*,2S*)]l-[Iminobis[2-hydroxy-1-(phenylmethyl)3,1-propanediyl]]bis[carbamic acid], 3-tetrahydrofuranyl 1,1-dimethylethyl ester] | 180 |
|  | 94 | CC(C)(C)OC(=O)N[C@@H](Cc1ccccc1)[C@H](O)CNC[C@@H](O)[C@H](Cc1ccccc1)NC(=O)[C@@](C)(O)C(C)(C)C [Compound 261, [1S-[1R*,2S*[2R*,3R*(R*)]]]-[3-[[3-[(2-Hydroxy-2,3,3-trimethyl-1-oxobutyl)amino]-2-hydroxy-4-phenylbutyl]amino]-2-hydroxy-1--(phenylmethyl)propyl]carbamic acid, 1,1-dimethylethyl ester] | 1100 |

The next lines start with the molecule.

| Compound | inhibition at 10 µM (HIV protease; [2]) [%] | inhibition at 10 µM (HIV protease; [3]) [%] | IC50 [1] [nM] |
| --- | --- | --- | --- |
| CC(C)(C)OC(=O)N[C@@H](Cc1ccccc1)[C@H](O)CNC[C@@H](O)[C@H](Cc1ccc(OCC(=O)N2CCCCC2)cc1)NC(=O)OC(C)(C)C [Compound 332] |  | 100 | 70 |
| CC(C)[C@H](NC(=O)N(C)Cc1ccccn1)C(=O)N[C@@H](Cc1ccccc1)[C@H](O)CNC[C@@H](O)[C@H](Cc1ccccc1)NC(=O)OC(C)(C)C [Compound 76, [S-[1R*,2S*(2S*,3R*)]]-N-[3-[[3-[[(1,1-Dimethylethoxy)carbonylamino]-2-hydroxy-4-phenylbutyl]amino]-2-hydroxy-1-(phenylmethyl)propyl]-N^2 [[methyl(2-pyridinyl-methyl)amino]carbonyl]-L-valinamide] | 100 |  | 600 |
| CC(C)[C@H](NC(=O)OC(C)(C)C)C(=O)N[C@@H](Cc1ccccc1)[C@H](O)CNC[C@@H](O)[C@H](Cc1ccccc1)NC(=O)[C@@H](NC(=O)OC(C)(C)C)C(C)C [Compound 34, [S-(1R*,2S*)]-N,N'-[Iminobis[2-hydroxy-1-(phenylmethyl)-3,1-propanediyl]]bis[N^2-[(1,1-dimethylethoxy)carbonyl]-L-valinamide]] | 20 |  | > 9000 |
| CC(C)[C@H](NC(=O)OCc1nc(-c2ccccc2)c[nH]1)C(=O)N[C@@H](Cc1ccccc1)[C@H](O)CNC[C@@H](O)[C@H](Cc1ccccc1)NC(=O)OC(C)(C)C (relative stereo) [Compound 265, [1R*,2S*(2S*,3R*)]-N-[3-[[3-[[(1,1-Dimethylethoxy)carbonyl]amino]-2-hydroxy-4-phenylbutyl]amino]-2-hydroxy-1-(phenylmethyl)propyl]-N^2-[[(4-phenyl-1H-imidazol-2-yl)methoxylcarbonyl]-L-valinamide] | 100 |  | 2600 |
| O=C(N[C@@H](Cc1ccccc1)[C@H](O)CNC[C@@H](O)[C@H](Cc1ccccc1)NC(=O)c1ccccc1)c1ccccc1 [Compound 36, [S-(1R*,2S*)]-N,N'-[Iminobis[2-hydroxy-1-(phenylmethyl)-3,1-propanediyl]]bisbenzamide] | 36 |  | > 8000 |
| CC(C)(C)OC(=O)N[C@@H](Cc1ccccc1)[C@H](O)CNC[C@@H](O)[C@H](Cc1ccc(OCCc2ccccn2)cc1)NC(=O)OC(C)(C)CO [Compound 282, [1S-[1R*,2S*(2S*,3R*)]]-[3-[[3-[[(1,1-Dimethylethoxy)carbonyl]amino]-2-hydroxy-4-phenylbutyl]amino]-2-hydroxy-1-[[4-[2-(2-pyridinyl)ethoxy]phenyl]methyl]propyl]carbamic acid, 2-hydroxy-1,1-dimethylethyl ester] | 100 |  | 60 |
| COC(=O)N[C@H](C(=O)N[C@@H](Cc1ccc(OCC(=O)N2CCOCC2)cc1)[C@H](O)CNC[C@@H](O)[C@H](Cc1ccccc1)NC(=O)OC(C)(C)C)C(C)(C)C (relative stereo) [Compound 341, [1R*,2S*(2S*,3R*)]-N-[3-[[3-[[(1,1-Dimethylethoxy)carbonyl]amino]-2-hydroxy-4-phenylbutyl]amino]-2-hydroxy-1-[[4-[2-(4-morpholinyl)-2-oxoethoxy]phenyl]methyl]propyl]-N^2-(2-methoxycarbonyl)-3-methyl-L-valinamide] | 99 |  | 2100 |
